Each molecule was assayed against 5-hydroxytryptamine receptor 6 (Homo sapiens, UniProt P50406) (assay: Radioligand-Binding Assay). Conditions: pH 7.4; 37 °C.
Experimental: In brief, receptor source and radioligand used were human recombinant expressed in HEK-293 cells and [3H] LSD (60-80 Ci/mmol), respectively. The final ligand concentration was 1.5 nM and non-specific determinant was methiothepin mesylate ([…]). The reference compound and positive control is methiothepin mesylate. Reactions were carried out in 50 mM Tris-HCl (pH 7.4) containing 10 mM MgCl2, 0.5 mM EDTA for 60 min at 37°C. The reaction was terminated by rapid vacuum filtration onto glass fibre filters.

Sequence of 5-hydroxytryptamine receptor 6 (P50406 whole entry): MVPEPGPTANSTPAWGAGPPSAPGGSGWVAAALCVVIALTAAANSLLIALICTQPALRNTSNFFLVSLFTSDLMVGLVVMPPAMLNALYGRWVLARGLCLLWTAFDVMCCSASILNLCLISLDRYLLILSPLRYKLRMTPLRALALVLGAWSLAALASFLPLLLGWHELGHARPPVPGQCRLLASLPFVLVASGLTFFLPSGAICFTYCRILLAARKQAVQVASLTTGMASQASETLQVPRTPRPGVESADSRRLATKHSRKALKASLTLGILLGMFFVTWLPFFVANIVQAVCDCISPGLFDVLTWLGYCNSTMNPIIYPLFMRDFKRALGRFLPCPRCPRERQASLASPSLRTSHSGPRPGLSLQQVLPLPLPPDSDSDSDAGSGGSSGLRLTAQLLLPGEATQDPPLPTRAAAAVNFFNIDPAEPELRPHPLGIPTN

First: CC(CC1=C2c3ccccc3S(=O)(=O)C2c2ccc(OCc3ccccc3)cc21)N(C)C (stereo unspecified) [2-Benzyloxy-10-[(2-N,N-dimethylamino-2-methyl)ethyl]benzo[d]isothiazolo[3,2-a]indol-S,S-dioxide (18)]
Second: CCOc1ccc2c(c1)C(CC(C)N(C)C)=C1c3ccccc3S(=O)(=O)C12 (stereo unspecified) [2-Ethoxy-10-[(2-N,N-dimethylamino-2-methyl)ethyl]benzo[d]isothiazolo[3,2-a]indol-S,S-dioxide (17)]
The Ki of the first is 9-fold higher: 100 nM for the first, 11.1 nM for the second.

Compared with CC(CC1=C2c3ccccc3S(=O)(=O)C2c2ccc(Br)cc21)N(C)C (stereo unspecified) [2-Bromo-10-[(2-N,N-dimethylamino-2-methyl)ethyl]benzo[d]isothiazolo[3,2-a]indol-S,S-dioxide (13)], COc1ccc2c(c1)C(CC(C)N(C)C)=C1c3ccccc3S(=O)(=O)C12 (stereo unspecified) [2-Methoxy-10-[(2-N,N-dimethylamino-2-methyl)ethyl)]benzo[d]isothiazolo[3,2-a]indol-S,S-dioxide (15)] is 4.7-fold lower in Ki: 54.1 nM for the first, 11.6 nM for the second. The second binds more tightly here.

Compared with CC(CC1=C2c3ccccc3S(=O)(=O)C2c2ccc(OCC3CCCCC3)cc21)N(C)C (stereo unspecified) [2-Cyclohexylmethyloxy-10-[(2-N,N-dimethylamino-2-methyl)ethyl]benzo[d] isothiazolo[3,2-a]indol-S,S-dioxide (20)], CC(C)Oc1ccc2c(c1)C(CC(C)N(C)C)=C1c3ccccc3S(=O)(=O)C12 (stereo unspecified) [2-Isopropoxy-10-[(2-N,N-dimethylamino-2-methyl)ethyl]benzo[d] isothiazolo[3,2-a]indol-S,S-dioxide (19)] is lower in Ki: > 1000 nM for the first, 239 nM for the second. The second binds more tightly here.

Going from COc1ccc2c(c1)C(CCN(C)C)=C1c3ccccc3S(=O)(=O)C12 (stereo unspecified) [2-Methoxy-10-(2-N,N-dimethylaminoethyl)benzo[d]isothiazolo[3,2-a]indol-S,S-dioxide (14)] to CN(C)CCC1=C2c3ccccc3S(=O)(=O)C2c2ccc(F)cc21 (stereo unspecified) [10-(2-N,N-Dimethylaminoethyl)-2-fluorobenzo[d]isothiazolo[3,2-a]indol-S,S-dioxide (7)], the Ki rises from 96 nM to 267 nM (2.8-fold). The first binds more tightly here.

First: CCC(CC1=C2c3ccccc3S(=O)(=O)C2c2ccc(OC)cc21)N(C)C (stereo unspecified) [2-Methoxy-10-[(2-N,N-dimethylamino-2-ethyl)ethyl]benzo[d]isothiazolo[3,2-a]indol-S,S-dioxide (16)]
Second: CN(C)CCC1=C2c3ccccc3S(=O)(=O)C2c2ccccc21 (stereo unspecified) [10-(2-N,N-Dimethylaminoethyl)benzo[d]isothiazolo[3,2-a]indol-S,S-dioxide (6)]
The Ki of the first is 8.7-fold lower: 28.3 nM for the first, 246 nM for the second. The first binds more tightly here.

For CN(C)CCC1=C2c3ccccc3CC2c2c1ccc1ccccc21 (stereo unspecified) [10-(2-N,N-dimethylaminoethyl)benzo[d]isoindolo[2,1-a]indole (28)], the Ki was 92.6 nM.
